Test results as given in PubChem BioAssay AID2060614 (Molecular Pharmacology Branch, DTP, NCI, 2025).
Several values for one entry are separate records, joined by “and”; a condition that tells them apart may be missing. Identical values can stand only once.

System: 598228-144-R-J1-PDC complex spheroids, viability
Experiment: Anticancer human tumor 598228-144-R-J1-PDC patient-derived serous endometrial adenocarcinoma cell line growth inhibition [CLK]
Conditions: for viability, T/C: stronger effect = lower value
Method in brief: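 Multi-cell-type spheroids combined patient-derived tumor cells with HUVEC endothelial cells and human mesenchymal stem cells. Paired agents were dosed in half-log steps down from about clinical Cmax, or from 10 microM where Cmax was unknown.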

[1] = curve of first compound, second compound 0.0316 µM
[2] = curve of first compound, second compound 0.1 µM
[3] = curve of first compound, second compound 0.316 µM
[4] = curve of first compound, second compound 1 µM
[5] = curve of first compound, second compound 3.16 µM
[6] = curve of first compound, second compound 10 µM
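Also: spheroids exposed to compounds for seven days before readout.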
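For viability, T/C in this document: 100% = DMSO vehicle control wells.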

COc1c(OCCCN2CCOCC2)ccc2c3n(c(=NC(=O)c4cnc(N)nc4)nc12)CCN3 + CN1CCN(c2cc(C(=O)Nc3cc4cc(-c5cnn(C)c5)ccc4cn3)ccn2)CC1
IC50 [1]: 30.9 nM | IC50 [2]: 19.5 nM | IC50 [3]: < 3.16 nM | IC50 [4]: < 3.16 nM | IC50 [5]: < 3.16 nM | IC50 [6]: < 3.16 nM | viability, T/C (second compound 0.0316 µM, first compound 0.00316 µM): 98.2% | viability, T/C (second compound 0.0316 µM, first compound 0.01 µM): 75.7% | viability, T/C (second compound 0.0316 µM, first compound 0.0316 µM): 46.8% | viability, T/C (second compound 0.0316 µM, first compound 0.1 µM): 31.9% | viability, T/C (second compound 0.0316 µM, first compound 0.316 µM): 15.7% | viability, T/C (second compound 0.0316 µM, first compound 1 µM): 8.56% | viability, T/C (second compound 0.1 µM, first compound 0.00316 µM): 85.5% | viability, T/C (second compound 0.1 µM, first compound 0.01 µM): 66.5% | viability, T/C (second compound 0.1 µM, first compound 0.0316 µM): 36.7% | viability, T/C (second compound 0.1 µM, first compound 0.1 µM): 23.5% | viability, T/C (second compound 0.1 µM, first compound 0.316 µM): 9.69% | viability, T/C (second compound 0.1 µM, first compound 1 µM): 10.4% | viability, T/C (second compound 0.316 µM, first compound 0.00316 µM): 10.5% | viability, T/C (second compound 0.316 µM, first compound 0.01 µM): 8.73% | viability, T/C (second compound 0.316 µM, first compound 0.0316 µM): 5.42% | viability, T/C (second compound 0.316 µM, first compound 0.1 µM): 2.85% | viability, T/C (second compound 0.316 µM, first compound 0.316 µM): 2.66% | viability, T/C (second compound 0.316 µM, first compound 1 µM): 2.22% | viability, T/C (second compound 1 µM, first compound 0.00316 µM): 1.16% | viability, T/C (second compound 1 µM, first compound 0.01 µM): 0.94% | viability, T/C (second compound 1 µM, first compound 0.0316 µM): 0.73% | viability, T/C (second compound 1 µM, first compound 0.1 µM): 0.29% | viability, T/C (second compound 1 µM, first compound 0.316 µM): 1.53% | viability, T/C (second compound 1 µM, first compound 1 µM): 3.1% | viability, T/C (second compound 3.16 µM, first compound 0.00316 µM): 0.95% | viability, T/C (second compound 3.16 µM, first compound 0.01 µM): 2.7% | viability, T/C (second compound 3.16 µM, first compound 0.0316 µM): 0.9% | viability, T/C (second compound 3.16 µM, first compound 0.1 µM): 0.57% | viability, T/C (second compound 3.16 µM, first compound 0.316 µM): 1.8% | viability, T/C (second compound 3.16 µM, first compound 1 µM): 4.26% | viability, T/C (second compound 10 µM, first compound 0.00316 µM): 0.66% | viability, T/C (second compound 10 µM, first compound 0.01 µM): 2.16% | viability, T/C (second compound 10 µM, first compound 0.0316 µM): 2.49% | viability, T/C (second compound 10 µM, first compound 0.1 µM): 0.4% | viability, T/C (second compound 10 µM, first compound 0.316 µM): 0.59% | viability, T/C (second compound 10 µM, first compound 1 µM): 3.39%

C=CC(=O)Nc1cc(Nc2nccc(-c3cn(C)c4ccccc34)n2)c(OC)cc1N(C)CCN(C)C + CNC(=O)c1ccc(Nc2nc(OC3CCCC3)c3c(-c4ccc5nc(C)oc5c4)c[nH]c3n2)c(OC)c1
IC50 [1]: > 300 nM | IC50 [2]: > 300 nM | IC50 [3]: > 300 nM | IC50 [4]: > 300 nM | IC50 [5]: > 300 nM | IC50 [6]: > 300 nM | viability, T/C (second compound 0.0316 µM, first compound 0.000949 µM): 124% | viability, T/C (second compound 0.0316 µM, first compound 0.003 µM): 113% | viability, T/C (second compound 0.0316 µM, first compound 0.00949 µM): 107% | viability, T/C (second compound 0.0316 µM, first compound 0.03 µM): 115% | viability, T/C (second compound 0.0316 µM, first compound 0.0949 µM): 101% | viability, T/C (second compound 0.0316 µM, first compound 0.3 µM): 105% | viability, T/C (second compound 0.1 µM, first compound 0.000949 µM): 120% | viability, T/C (second compound 0.1 µM, first compound 0.003 µM): 103% | viability, T/C (second compound 0.1 µM, first compound 0.00949 µM): 104% | viability, T/C (second compound 0.1 µM, first compound 0.03 µM): 104% | viability, T/C (second compound 0.1 µM, first compound 0.0949 µM): 103% | viability, T/C (second compound 0.1 µM, first compound 0.3 µM): 78.3% | viability, T/C (second compound 0.316 µM, first compound 0.000949 µM): 112% | viability, T/C (second compound 0.316 µM, first compound 0.003 µM): 109% | viability, T/C (second compound 0.316 µM, first compound 0.00949 µM): 120% | viability, T/C (second compound 0.316 µM, first compound 0.03 µM): 93.5% | viability, T/C (second compound 0.316 µM, first compound 0.0949 µM): 96.5% | viability, T/C (second compound 0.316 µM, first compound 0.3 µM): 77.7% | viability, T/C (second compound 1 µM, first compound 0.000949 µM): 104% | viability, T/C (second compound 1 µM, first compound 0.003 µM): 90.3% | viability, T/C (second compound 1 µM, first compound 0.00949 µM): 90.5% | viability, T/C (second compound 1 µM, first compound 0.03 µM): 99% | viability, T/C (second compound 1 µM, first compound 0.0949 µM): 91.2% | viability, T/C (second compound 1 µM, first compound 0.3 µM): 94.1% | viability, T/C (second compound 3.16 µM, first compound 0.000949 µM): 101% | viability, T/C (second compound 3.16 µM, first compound 0.003 µM): 102% | viability, T/C (second compound 3.16 µM, first compound 0.00949 µM): 80.9% | viability, T/C (second compound 3.16 µM, first compound 0.03 µM): 87.6% | viability, T/C (second compound 3.16 µM, first compound 0.0949 µM): 82.7% | viability, T/C (second compound 3.16 µM, first compound 0.3 µM): 62.3% | viability, T/C (second compound 10 µM, first compound 0.000949 µM): 86.5% | viability, T/C (second compound 10 µM, first compound 0.003 µM): 86.4% | viability, T/C (second compound 10 µM, first compound 0.00949 µM): 86.3% | viability, T/C (second compound 10 µM, first compound 0.03 µM): 73.1% | viability, T/C (second compound 10 µM, first compound 0.0949 µM): 77.5% | viability, T/C (second compound 10 µM, first compound 0.3 µM): 60.7%

COc1c(OCCCN2CCOCC2)ccc2c3n(c(=NC(=O)c4cnc(N)nc4)nc12)CCN3
viability, T/C (compound 0.00316 µM): 80.5% and 77.9% | viability, T/C (compound 0.01 µM): 65.1% and 53.3% | viability, T/C (compound 0.0316 µM): 52.9% and 45.3% | viability, T/C (compound 0.1 µM): 34.8% and 27.9% | viability, T/C (compound 0.316 µM): 19.3% and 14.2% | viability, T/C (compound 1 µM): 8.63% and 7.29% | IC50 (curve of compound): 34.6 nM and 17.5 nM
